# Test results: patent US20100048511A1, “COMPLEX FORMULATION FOR PREVENTING OR TREATING OSTEOPOROSIS WHICH COMPRISES SOLID DISPERSION OF VITAMIN D OR ITS DERIVATIVE AND BISPHOSPHONATE” (priority 2006, published 2010)
# Legend:
# [1] = Stability test of the solid dispersion comprising vitamin D (cholecalciferol content by HPLC, 60° C. dried oven); assay type: physicochemical
# Procedure: The time-dependent change of the cholecalciferol content of each test material was analyzed using the solid dispersions prepared in Comparative Example 2 (0.07 mg of cholecalciferol) and Examples 1 to 4 as test materials, during the period of incubating the test materials in a 60° C. dried oven.
# Each test material was pretreated as follows, before the analysis of cholecalciferol.
# Each test material was taken in the amount corresponding to about 28 mg cholecalciferol and placed in a 50 ml flask, 5 ml of 0.01 M HCl was added thereto, the mixture was ultrasonicated for 3 minutes, and the flask was filled with ethanol. 15 ml of the resulting solution was mixed with 5 ml of purified water and 20 ml of n-hexane for 5 minutes, and centrifuged at 2000 rpm for 5 minutes. 10 ml of the supernatant was harvested, evaporated under a reduced pressure, and 2 ml of n-hexane was added thereto. The cholecalciferol content of each test material was analyzed by HPLC under the following conditions. The results are shown in Table 7. • Column: silica column (5 μm, 4.6 mm×250 mm) • Mobile phase: (chloroform: n-hexane: tetrahydrofuran=650:350:10 (v/v)) • Injecting volume: 100 μl • Flow rate: 1.0 ml/min • Detector: ultraviolet spectrophotometer (wavelength: 254 nm; L-7400, HITACHI, Japan)
# [2] = preserved at 40° C. for 4 days; cited from earlier work
Compound,cholecalciferol content ([1]; 2 weeks) [%],cholecalciferol content ([1]; 4 weeks) [%],cholecalciferol content ([1]; incubation time 0) [%],"content of vitamin D3 in the formulation, of the original content [2]"
"C=C1CC[C@H](O)C/C1=C/C=C1\CCC[C@]2(C)[C@@H]([C@H](C)CCCC(C)C)CC[C@@H]12 [Comparative Example 2, cholecalciferol]",3.3,0.0,100,–
"C=C1CC[C@H](O)C/C1=C/C=C1\CCC[C@]2(C)[C@@H]([C@H](C)CCCC(C)C)CC[C@@H]12 [vitamin D3, cholecalciferol]",–,–,–,about 86.3%
